Experimental data taken from patent US20260132127A1, “NOVEL SPIRO COMPOUND” (MITSUBISHI TANABE PHARMA CORPORATION, priority 2021, published 2026).

Target: T1, human TRH-DE (Homo sapiens, UniProt Q9UKU6)
T1 construct: expressed in transfected cells; host or cells: Expi 293 cells (transient expression), membrane fraction
T1 sequence (Q9UKU6 1-1069): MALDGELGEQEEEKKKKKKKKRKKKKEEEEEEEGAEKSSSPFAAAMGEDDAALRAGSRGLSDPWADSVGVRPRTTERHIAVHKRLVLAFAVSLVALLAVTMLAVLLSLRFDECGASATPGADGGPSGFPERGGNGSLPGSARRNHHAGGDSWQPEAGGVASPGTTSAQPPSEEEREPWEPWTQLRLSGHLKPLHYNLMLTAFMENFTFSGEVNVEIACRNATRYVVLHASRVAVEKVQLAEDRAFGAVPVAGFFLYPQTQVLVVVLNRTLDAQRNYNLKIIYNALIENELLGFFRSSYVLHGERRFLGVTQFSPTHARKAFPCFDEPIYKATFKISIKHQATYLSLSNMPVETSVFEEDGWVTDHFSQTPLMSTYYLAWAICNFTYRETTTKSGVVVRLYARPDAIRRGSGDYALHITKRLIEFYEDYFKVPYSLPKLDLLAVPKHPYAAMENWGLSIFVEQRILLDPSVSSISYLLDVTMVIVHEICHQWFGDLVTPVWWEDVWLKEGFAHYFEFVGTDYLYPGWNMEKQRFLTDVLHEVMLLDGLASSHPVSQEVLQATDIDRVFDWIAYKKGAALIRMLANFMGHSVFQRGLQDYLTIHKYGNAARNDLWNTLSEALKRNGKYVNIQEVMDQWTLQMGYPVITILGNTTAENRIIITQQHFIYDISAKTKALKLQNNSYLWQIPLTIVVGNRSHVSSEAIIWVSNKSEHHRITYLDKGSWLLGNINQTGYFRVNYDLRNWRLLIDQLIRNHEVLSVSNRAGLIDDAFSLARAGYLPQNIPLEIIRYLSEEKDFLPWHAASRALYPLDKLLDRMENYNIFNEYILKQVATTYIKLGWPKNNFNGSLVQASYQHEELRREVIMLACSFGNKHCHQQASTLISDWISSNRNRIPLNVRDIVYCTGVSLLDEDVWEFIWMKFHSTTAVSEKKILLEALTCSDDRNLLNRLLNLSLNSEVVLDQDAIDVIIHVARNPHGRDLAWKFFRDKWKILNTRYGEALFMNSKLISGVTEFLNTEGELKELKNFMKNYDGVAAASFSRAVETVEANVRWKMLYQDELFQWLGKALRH
Assay: TRH-DE inhibition test (RapidFire MS measurement of product Cyclo (His-Pro))
Assay type: biochemical
Conditions: membrane fraction of Expi 293 cells expressing human TRH-DE; 10 μM TRH substrate; room temperature, 2 hours; 16-point concentration test
How it was run: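 Membrane fraction from Expi 293 cells transiently expressing human TRH-DE, at 4 μg/ml in phosphate buffer pH 7.4 with 200 μM bacitracin, reacted with compound and 10 μM substrate for 2 h at room temperature. Cyclo(His-Pro) measured by RapidFire MS against an isotope internal standard. IC50 from 16-point curves.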

| Compound | IC50 [nM] |
| --- | --- |
| CCn1ncc2c1OC[C@@H](C)N(C1CC3(C1)CN(S(=O)(=O)c1ccccc1F)C3)C2=O [Example 199] | 21 |
| C[C@@H]1COc2c(cnn2CC(F)F)C(=O)N1C1CC2(C1)CN(S(=O)(=O)c1ccccc1F)C2 [Example 200] | 19 |
| C[C@@H]1COc2c(cnn2CC(F)(F)F)C(=O)N1C1CC2(C1)CN(S(=O)(=O)c1ccccc1F)C2 [Example 201] | 20 |
| C[C@@H]1COc2c(cnn2C2CC2)C(=O)N1C1CC2(C1)CN(S(=O)(=O)c1ccccc1F)C2 [Example 202] | 19 |
| C[C@@H]1COc2c(cnn2C(C)(C)C)C(=O)N1C1CC2(C1)CN(S(=O)(=O)c1ccccc1F)C2 [Example 203] | 34 |
| C[C@@H]1COc2c(cnn2-c2ccccc2)C(=O)N1C1CC2(C1)CN(S(=O)(=O)c1ccccc1F)C2 [Example 204] | 34 |
| C[C@@H]1COc2nn(C)cc2C(=O)N1C1CC2(C1)CN(S(=O)(=O)c1ccccc1F)C2 [Example 209] | 22 |
| C[C@@H]1COc2nn(C3CC3)cc2C(=O)N1C1CC2(C1)CN(S(=O)(=O)c1ccccc1F)C2 [Example 210] | 21 |
| C[C@@H]1COc2nn(C)c(Br)c2C(=O)N1C1CC2(C1)CN(S(=O)(=O)c1ccccc1F)C2 [Example 212] | 23 |
| C[C@@H]1CCn2cnc(Br)c2C(=O)N1C1CC2(C1)CN(S(=O)(=O)c1ccccc1F)C2 [Example 215] | 26 |
| Cc1nc(Br)n2c1C(=O)N(C1CC3(C1)CN(S(=O)(=O)c1ccccc1F)C3)[C@H](C)CC2 [Example 216] | 46 |
| C[C@@H]1COc2conc2C(=O)N1C1CC2(C1)CN(S(=O)(=O)c1ccccc1F)C2 [Example 217] | 35 |
| Cc1onc2c1C(=O)N(C1CC3(C1)CN(S(=O)(=O)c1ccccc1F)C3)[C@H](C)CO2 [Example 218] | 37 |
| C[C@@H]1COc2noc(C(C)(C)C)c2C(=O)N1C1CC2(C1)CN(S(=O)(=O)c1ccccc1F)C2 [Example 219] | 38 |
| C[C@@H]1CCN2CCC[C@H]2C(=O)N1C1CC2(C1)CN(S(=O)(=O)c1ccccc1F)C2 [Example 221] | 988 |
| C[C@@H]1CCN2CCC[C@H]2C(=O)N1C1CC2(C1)CN(S(=O)(=O)c1ccccc1F)C2 [Example 222] | 449 |
| C[C@@H]1Cn2nc(Cl)cc2C(=O)N1C1CC2(C1)CN(S(=O)(=O)c1ccccc1F)C2 [Example 223] | 18 |
| C[C@@H]1Cn2nc(C(C)(F)F)cc2C(=O)N1C1CC2(C1)CN(S(=O)(=O)c1ccccc1F)C2 [Example 224] | 41 |
| C[C@@H]1Cn2nc(C3(F)CC3)cc2C(=O)N1C1CC2(C1)CN(S(=O)(=O)c1ccccc1F)C2 [Example 226] | 16 |
| C[C@@H]1Cn2nc(C(F)(F)F)cc2C(=O)N1C1CC2(C1)CN(S(=O)(=O)c1ccccc1F)C2 [Example 228] | 48 |
| C[C@@H]1Cn2ncc(Cl)c2C(=O)N1C1CC2(C1)CN(S(=O)(=O)c1ccccc1F)C2 [Example 229] | 33 |
| C[C@@H]1Cn2ncc(Br)c2C(=O)N1C1CC2(C1)CN(S(=O)(=O)c1ccccc1F)C2 [Example 230] | 19 |
| C[C@@H]1Cn2nc(F)c(Br)c2C(=O)N1C1CC2(C1)CN(S(=O)(=O)c1ccccc1F)C2 [Example 232] | 21 |
| C[C@@H]1Cn2cnc(Br)c2C(=O)N1C1CC2(C1)CN(S(=O)(=O)c1ccccc1F)C2 [Example 233] | 31 |
| C[C@@H]1Cn2c(cnc2C(F)(F)F)C(=O)N1C1CC2(C1)CN(S(=O)(=O)c1ccccc1F)C2 [Example 238, (6R)-7-[2-(2-fluorophenyl)sulfonyl-2-azaspiro[3.3]heptan-6-yl]-6-methyl-3-(trifluoromethyl)-5,6-dihydroimidazo[1,5-a]pyrazin-8-one] | 357 |

The next compounds have a lower IC50 than those just listed; values first:

| IC50 [nM] | Compound |
| --- | --- |
| 14 | C[C@@H]1CCn2nc3c(c2C(=O)N1C1CC2(C1)CN(S(=O)(=O)c1ccccc1F)C2)CCC3 [Example 198] |
| 14 | Cc1nn(C)c2c1C(=O)N(C1CC3(C1)CN(S(=O)(=O)c1ccccc1F)C3)[C@H](C)CO2 [Example 205] |
| 14 | C[C@@H]1COc2c(c(C3CC3)nn2C2CC2)C(=O)N1C1CC2(C1)CN(S(=O)(=O)c1ccccc1F)C2 [Example 208] |
| 14 | CC1Cc2ccccc2C(=O)N1C1CC2(C1)CN(S(=O)(=O)c1ccccc1F)C2 (stereo not shown) [Example 240] |
| 13 | C[C@@H]1CCn2nc(C3CC3)c(F)c2C(=O)N1C1CC2(C1)CN(S(=O)(=O)c1ccccc1F)C2 [Example 197] |
| 13 | Cc1c2c(nn1C)OC[C@@H](C)N(C1CC3(C1)CN(S(=O)(=O)c1ccccc1F)C3)C2=O [Example 211] |
| 13 | C[C@@H]1Cn2nc(C3CC3)c(F)c2C(=O)N1C1CC2(C1)CN(S(=O)(=O)c1ccccc1F)C2 [Example 231] |
| 12 | C[C@@H]1COc2noc(C3CC3)c2C(=O)N1C1CC2(C1)CN(S(=O)(=O)c1ccccc1F)C2 [Example 220] |
| 11 | Cc1nn(C2CC2)c2c1C(=O)N(C1CC3(C1)CN(S(=O)(=O)c1ccccc1F)C3)[C@H](C)CO2 [Example 207] |
| 11 | C[C@@H]1CCn2c(cnc2Br)C(=O)N1C1CC2(C1)CN(S(=O)(=O)c1ccccc1F)C2 [Example 214] |
| 11 | C[C@@H]1Cn2nc(C3CC3)cc2C(=O)N1C1CC2(C1)CN(S(=O)(=O)c1ccccc1F)C2 [Example 225] |
| 11 | CC1COc2ccccc2C(=O)N1C1CC2(C1)CN(S(=O)(=O)c1ccccc1F)C2 (stereo not shown) [Example 239, 4-[2-(2-fluorophenyl)sulfonyl-2-azaspiro[3.3]heptan-6-yl]-3-methyl-2,3-dihydro-1,4-benzoxazepin-5-one] |
| 9 | C[C@@H]1Cn2nc(C3(C(F)(F)F)CC3)cc2C(=O)N1C1CC2(C1)CN(S(=O)(=O)c1ccccc1F)C2 [Example 227] |
| 5 | C[C@@H]1COc2c(c(C3CC3)nn2C)C(=O)N1C1CC2(C1)CN(S(=O)(=O)c1ccccc1F)C2 [Example 206] |
| 4 | C[C@@H]1COc2nc([C@H]3C[C@H]3F)sc2C(=O)N1C1CC2(C1)CN(S(=O)(=O)c1ccccc1F)C2 [Example 234, (6R)-2-[(1S,2R)-2-fluorocyclopropyl]-7-[2-(2-fluorophenyl)sulfonyl-2-azaspiro[3.3]heptan-6-yl]-6-methyl-5,6-dihydrothiazolo[5,4-f][1,4]oxazepin-8-one] |
| 3 | C[C@@H]1COc2nc([C@@H]3C[C@H]3F)sc2C(=O)N1C1CC2(C1)CN(S(=O)(=O)c1ccccc1F)C2 [Example 235, (6R)-2-[(1R,2R)-2-fluorocyclopropyl]-7-[2-(2-fluorophenyl)sulfonyl-2-azaspiro[3.3]heptan-6-yl]-6-methyl-5,6-dihydrothiazolo[5,4-f][1,4]oxazepin-8-one] |
| 3 | C[C@@H]1COc2nc([C@H]3C[C@@H]3F)sc2C(=O)N1C1CC2(C1)CN(S(=O)(=O)c1ccccc1F)C2 [Example 237, (6R)-2-[(1S,2S)-2-fluorocyclopropyl]-7-[2-(2-fluorophenyl)sulfonyl-2-azaspiro[3.3]heptan-6-yl]-6-methyl-5,6-dihydrothiazolo[5,4-f][1,4]oxazepin-8-one] |
| 2 | C[C@@H]1COc2nc([C@@H]3C[C@@H]3F)sc2C(=O)N1C1CC2(C1)CN(S(=O)(=O)c1ccccc1F)C2 [Example 236, (6R)-2-[(1R,2S)-2-fluorocyclopropyl]-7-[2-(2-fluorophenyl)sulfonyl-2-azaspiro[3.3]heptan-6-yl]-6-methyl-5,6-dihydrothiazolo[5,4-f][1,4]oxazepin-8-one] |
